Entries after “also recorded” stand apart in the source; their conditions may differ.
What was measured:
[1] = tested on: differentiated otic epithelium islands from stem cells isolated from the postnatal organ of Corti; experiment: In vitro cell culture assay: proportion of Sox2-positive cells (dedifferentiation); assay type: cell-based, mouse; details: screening assay, FIG. 3; p<0.05, n=10
Protocol: (§1) First, starting with stem cells with otic development potential isolated from the postnatal organ of Corti of the mouse, typical cellular cluster “spheres” were grown in a suspension culture. Under culture conditions optimized compared to known processes (Oshima et al., 2007; Senn et al., 2007) in a DMEM/F12 medium (Dulbecco's Modified Eagle Medium) supplemented with B27 and N2, about 1600 solid spheres per organ of Corti could be generated from the stem cell culture with added FGF (fibroblast growth factor) and IGF (insulin-like growth factor) (FIG. 1H).
(§2) To this end, the cultivated otospheres were differentiated in a second step under adherent culture conditions on an ornithine/fibronectin surface to give monolayer epithelium islands relatively similar to the original sensory epithelium.
For screening, firstly the proportion of Sox2-positive cells in the in vitro culture was determined. Sox2 is a stem cell marker, which is also expressed during ontogenesis of the organ of Corti. It is thought to have an important role in the pluripotency of embryonal stem cells and during induction of pluripotent stem cells from differentiated cells (Takahashi and Yamanaka, 2006). Accordingly, Sox2 is an important marker, in particular in the context of an induced dedifferentiation/reprogramming of cells.

[2] = tested on: differentiated otic epithelium islands from stem cells isolated from the postnatal organ of Corti; experiment: In vitro cell culture assay: BrdU-positive cells (proliferation), screening and dose/activity analysis; assay type: cell-based, mouse
Protocol: as §1, §2
If the expression of stem cell markers induced by the compounds is in the end also associated with an increased proliferation of the cells in culture was checked by quantification of the BrdU-positive cells. During substance administration the culture was incubated for 5 h with the thymidine analog BrdU. During the S phase of the cell cycle, cell division results in incorporation of BrdU. If one of the substances stimulates cell division, this can be detected and visualized with an antibody directed against BrdU.
In a dose/activity analysis, the optimum concentration range in which this compound unfolds its maximum regeneration biological effect in the cell culture was determined.
To this end, incorporation of BrdU in the stem cell-based in vitro cell culture assay was determined at 4 concentrations between 0.3 μM and 10 μM in the culture medium. […] From a concentration of 3 μM, the saturation level of about 9% BrdU-positive cells is already reached (FIG. 5).

[3] = tested on: supportive cells of the organ of Corti; experiment: In vitro organ culture model: BrdU incorporation after neomycin damage; assay type: cell-based, mouse; details: 5 μM, 4 days, after neomycin (1 mM) damage, FIG. 6
Description: To confirm the effects observed in the cell culture assay in the native organ, i.e., in situ in the complex cellular structure of the organ of Corti, use was made of a form of organ culture where the tissue to be cultivated, in the present case the entire inner ear of the mouse, was located in a rotating cylinder filled with culture medium (Hahn et al., 2008). Before the start of the experiment, the cochlea was opened basally and apically in the region of the scala tympani. In this manner, it was possible to minimize the effect of gravity and at the same time to achieve optimum gas and nutrient exchange between the tissue of the organ of Corti and the culture medium. Under these conditions, the explantate could be kept in culture for longer compared to a stationary culture.
(§3) After administration of the ototoxic aminoglycoside antibiotic neomycin (1 mM), ⅔of all sensory hair cells suffered cell death within 24 hours. Only in the apical regions of the cochlea, some sensory hair cells survived, the number of which declined further during the course of the experiment as a result of the initial damage. After removal of the neomycin from the medium, the remaining supportive cells could be cultivated further.
BrdU was then added to the culture medium simultaneously with the compounds (5 μM), and after 4 days the proliferation was quantified by BrdU incorporation.

organ of Corti = experiment: In vivo administration after acoustic trauma: regeneration of sensory hair cells (BrdU, myosin VI, DAPI, Sox2 labelling); details: adult guinea pig, impulse noise damage, 200 μM in Alzet pump intracochlear over 6 weeks, FIG. 7
Description: Acute acoustic damage resulting in a loss of sensory hair cells of the organ of Corti, in particular in the region of the outer sensory hair cells, was caused by impulse noise. The compound N-cyclohexyl-2-[1-amino-2-(1H-indol-3-yl)ethyl]α-azole-4-carboxylic acid amide (3) was then continuously administered locally from a miniosmotic pump (Alzet®), subcutaneously implanted, via choleostomy directly into the scala tympani of the cochlea. The dosage of the substance in the pump was correspondingly higher at 200 μM, taking into account an expected dilution effect in the perilymph.
Administration was over a period of 6 weeks, with a subsequent waiting interval of 2 weeks. In parallel, BrdU was administered via the drinking water or the miniosmotic pump to label proliferating cells in the organ of Corti.
After removal of the organ of Corti, immunohistochemical triple labelling with BrdU (cell division), myosin VI (sensory hair cells) and DAPI (staining of the nuclei) FIGS. 7A to 7E and also with Sox2 (pluripotent supportive cells) was carried out.

sensory hair cells = experiment: Ototoxic damage of sensory hair cells in organ culture; assay type: cell-based, mouse; details: 1 mM, within 24 hours
Protocol: as §3

Row | Molecule | proportion of Sox2-expressing cells compared with the differentiation control [1] | BrdU incorporation in dose/activity analysis ([2]; 0.3 μM in culture medium, FIG. 5) | BrdU incorporation in dose/activity analysis ([2]; 1 μM in culture medium, FIG. 5) | BrdU incorporation when concentration increased from 0.3 μM to 3 μM ([2]; adhesion culture, p<0.05, n=10, FIG. 5) | BrdU incorporation at concentrations higher than 3 μM ([2]; adhesion culture, up to 10 μM, FIG. 5) | BrdU-positive cells, saturation level in dose/activity analysis ([2]; from 3 μM in culture medium, FIG. 5) | proportion of BrdU-positive cells (induced proliferation) ([2]; screening assay, 5 h incubation with BrdU, FIG. 4) | BrdU incorporation, result in words ([2]; screening assay, 5 h incubation with BrdU, p<0.05, n=10) | BrdU incorporation into supportive cells (proliferation) [3] | BrdU incorporation into supportive cells (proliferation) ([3]; listed as substance 33) | regeneration of sensory hair cells based on cell division (BrdU labelling) (organ of Corti) | proportion of all sensory hair cells that suffered cell death (sensory hair cells)
1 | N[C@@H](Cc1c[nH]c2ccccc12)c1nc(C(=O)NC2CCCCC2)co1 [Compound 3, N-cyclohexyl-2-[1-amino-2-(1H-indol-3-yl)ethyl]oxazole-4-carboxylic acid amide] | more than doubled; also recorded: significant positive results | no significant effect | the mean was already elevated | increased to a significantly higher level | could not be increased any further | about 9% | 4.8% | significant positive results | BrdU incorporation could be demonstrated in the furthest laterally orientated Deiter's cells; also recorded: new cells in the sense of a regeneration by cell division of supportive cells have been formed; also recorded: BrdU was incorporated into laterally orientated Deiter's cells | BrdU was incorporated into individual inner phalangeal cells and inner border cells | BrdU-labelled supportive cells and sensory hair cells were preferably demonstrated in the regions of the organ of Corti damaged by acoustic trauma; also recorded: regeneration of sensory hair cells on the basis of cell divisions can be induced | 
2 | neomycin |  |  |  |  |  |  |  |  |  |  |  | ⅔
